In PubChem BioAssay AID2260 (Sanford-Burnham Center for Chemical Genomics, 2010):
Active and inactive are the calls of the source. The rule behind the calls is not given here.

System: MCF-7/NOD2 cells, MDP-induced IL-8 secretion
Assay: NOD2 pathway IL-8 secretion inhibitors – MCF-7/NOD2 cells, MDP stimulus, SAR follow-up (AID 2260)

| IC50 | SMILES |
| --- | --- |
| > 25 µM (inactive) | Cc1ccc(S(=O)(=O)n2c(N)nc3ccccc32)cc1 |
| > 5 µM (inactive) | Cc1ccc(S(=O)(=O)n2c(N)nc3cc(C)c(C)cc32)cc1 |
| > 5 µM (inactive) | Nc1nc2ccccc2n1S(=O)(=O)c1ccccc1 |

More lines, now with the values behind:

| SMILES | IC50 |
| --- | --- |
| COc1ccc(S(=O)(=O)n2c(N)nc3ccccc32)cc1 | > 5 µM (inactive) |
| Nc1nc2ccccc2n1S(=O)(=O)c1ccc([N+](=O)[O-])cc1 | > 5 µM (inactive) |
| O=C(O)c1c(NC(=O)N2CCOCC2)sc2c1CCCC2 | > 25 µM (inactive) |
